Bounds are passed on as bounds.

This passage reports IC50 results from patent US10093678B2, “Azaspiro derivatives as TRPM8 antagonists” (RaQualia Pharma Inc., priority 2014, dated 2018).

The target in the experiment is T1, human TRPM8 (Homo sapiens, UniProt Q7Z2W7).
T1 construct: expressed in transfected cells; host or cells: HEK293
T1 sequence (Q7Z2W7 whole entry): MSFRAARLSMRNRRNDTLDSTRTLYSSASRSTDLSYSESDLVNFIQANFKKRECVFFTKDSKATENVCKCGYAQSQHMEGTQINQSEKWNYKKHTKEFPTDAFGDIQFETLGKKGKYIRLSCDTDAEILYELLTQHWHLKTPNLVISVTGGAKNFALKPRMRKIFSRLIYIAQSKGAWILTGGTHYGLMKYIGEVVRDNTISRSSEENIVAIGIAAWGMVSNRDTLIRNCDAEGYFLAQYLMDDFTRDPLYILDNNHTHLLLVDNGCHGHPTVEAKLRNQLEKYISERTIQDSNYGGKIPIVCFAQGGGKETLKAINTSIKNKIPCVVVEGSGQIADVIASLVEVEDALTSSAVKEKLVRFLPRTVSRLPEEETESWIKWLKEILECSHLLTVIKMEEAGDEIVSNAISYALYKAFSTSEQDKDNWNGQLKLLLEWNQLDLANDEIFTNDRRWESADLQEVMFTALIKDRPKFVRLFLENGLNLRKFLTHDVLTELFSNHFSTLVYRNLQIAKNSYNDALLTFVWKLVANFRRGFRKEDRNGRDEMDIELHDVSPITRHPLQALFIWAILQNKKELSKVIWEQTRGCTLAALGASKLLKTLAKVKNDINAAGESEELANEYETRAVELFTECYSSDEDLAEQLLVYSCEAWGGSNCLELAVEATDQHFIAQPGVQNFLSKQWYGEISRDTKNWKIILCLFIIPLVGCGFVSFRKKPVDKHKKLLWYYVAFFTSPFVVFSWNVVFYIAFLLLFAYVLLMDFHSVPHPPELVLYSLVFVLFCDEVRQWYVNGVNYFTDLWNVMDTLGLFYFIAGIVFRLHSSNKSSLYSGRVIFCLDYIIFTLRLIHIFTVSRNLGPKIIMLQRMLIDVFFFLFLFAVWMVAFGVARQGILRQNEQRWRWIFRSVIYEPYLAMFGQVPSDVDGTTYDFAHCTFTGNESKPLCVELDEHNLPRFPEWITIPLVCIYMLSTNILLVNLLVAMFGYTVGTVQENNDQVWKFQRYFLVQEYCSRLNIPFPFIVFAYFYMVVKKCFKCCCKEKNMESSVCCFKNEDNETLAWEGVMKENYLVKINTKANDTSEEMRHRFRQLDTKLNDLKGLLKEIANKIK
Description: Menthol-induced Ca2+ influx in HEK293 cells stably expressing human TRPM8. It is filed as cell-based. The following applies: 30 microM menthol-induced Ca2+ influx, read-out: IC50 against TRPM8. In a few lines: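 IC50 values were fitted from 11-point dose-response data averaged over duplicate wells. Compound was added for 5 min to Fluo4-loaded HEK293 cells carrying stable human TRPM8, in HBSS/HEPES pH 7.4 with probenecid. Intracellular Ca2+ change after 30 microM menthol addition was then imaged on FDSS.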
In general, IC50 refers to the concentration needed to halve the response being measured. As for `Cc1ccnc(Oc2ccc(C(=O)CN3C(=O)NC4(CCC(F)(F)CC4)C3=O)cc2)n1` [Example 21-7], the IC50 was less than 500 nM.
To `O=C(CN1C(=O)NC2(CCC(F)(F)CC2)C1=O)c1ccc(-c2cncc3[nH]ccc23)cc1` [Example 6-5] belongs less than 10 nM; to `O=C(CN1C(=O)NC2(CCC(F)(F)CC2)C1=O)c1ccc(-c2cccc3[nH]ccc23)nc1` [Example 9-10], less than 10 nM; to `Cc1cc(C(=O)CN2C(=O)NC3(CCC(F)(F)CC3)C2=O)n(C)c1-c1cccc2c1CNC2=O` [Example 16-17], less than 100 nM.
On to `Cc1cc(C(=O)CN2C(=O)NC3(CCC(F)(F)CC3)C2=O)n(C)c1-c1cncnc1` [Example 16-16], for which the IC50 is less than 100 nM.
As for `Cc1nc2ccccc2n1-c1ccc(C(=O)CN2C(=O)NC3(CCC(F)(F)CC3)C2=O)cc1` [Example 5-8], the IC50 is less than 100 nM.
The value for `N#Cc1cccnc1-c1ccc(C(=O)CN2C(=O)NC3(CCCCC3)C2=O)cc1` [Example 7-12] was less than 100 nM; that for `O=C(CN1C(=O)NC2(CCCCC2)C1=O)c1ccc(-c2ccccc2F)nc1` [Example 9-4] was less than 100 nM.
The value for `Cc1ccccc1-c1ccc(C(=O)CN2C(=O)NC3(CCC(F)(F)CC3)C2=O)nn1` [Example 12-7] was less than 500 nM; that for `Cn1c(C(=O)CN2C(=O)NC3(CCC(F)(F)CC3)C2=O)ccc1-c1ccccc1C#N` [Example 16-29] was less than 500 nM.
The value for `O=C(CN1C(=O)NC2(CCC(F)(F)CC2)C1=O)c1ccc(-c2nncc3ccccc23)cc1` [Example 6-18] was less than 100 nM; that for `O=C(CN1C(=O)NC2(CCC(F)(F)CC2)C1=O)c1ccc(-c2ccnc3[nH]ccc23)cc1` [Example 6-13] was less than 100 nM; that for `O=C(CN1C(=O)NC2(CCC(F)(F)CC2)C1=O)c1ccc(-c2ncccc2Cl)cc1` [Example 6-22] was less than 100 nM.
Turning to `Cn1cc2c(-c3ccc(C(=O)CN4C(=O)NC5(CCC(F)(F)CC5)C4=O)cc3)cccc2n1` [Example 6-69], the IC50 was less than 500 nM.
The value for `Cc1cccc(-c2cnc(C(=O)CN3C(=O)NC4(CCC(F)(F)CC4)C3=O)n2C)c1` [Example 17-14] was less than 500 nM; that for `NC(=O)c1ccccc1-c1ccc(C(=O)CN2C(=O)NC3(CCC(F)(F)CC3)C2=O)cc1` [Example 6-99] was less than 500 nM.
For the molecule `N#Cc1nccnc1-c1ccc(C(=O)CN2C(=O)NC3(CCC(F)(F)CC3)C2=O)cc1` [Example 6-3], the IC50 is less than 10 nM.
As to `O=C(CN1C(=O)NC2(CCC(F)(F)CC2)C1=O)c1ccc(-c2cccnc2)nc1` [Example 5-1], the IC50 was less than 100 nM.
To `Cc1ccc2ncn(-c3ccc(C(=O)CN4C(=O)NC5(CCC(F)(F)CC5)C4=O)cc3)c2n1` [Example 26-2] belongs less than 100 nM; to `Cn1c(-c2cccc3ccncc23)cnc1C(=O)CN1C(=O)NC2(CCC(F)(F)CC2)C1=O` [Example 17-2], less than 100 nM; to `Cc1ccncc1-c1ncc(C(=O)CN2C(=O)NC3(CCC(F)(F)CC3)C2=O)cc1Cl` [Example 5-25], less than 100 nM.
To `Cc1cccc(-n2c(C)nc(C(=O)CN3C(=O)NC4(CCC(F)(F)CC4)C3=O)c2C)c1` [Example 2-12] belongs less than 100 nM; to `Cc1nc(C(=O)CN2C(=O)NC3(CCCCC3)C2=O)c(C)n1-c1cccc(Cl)c1` [Example 2-15], less than 100 nM.
To `Cc1cccc(Oc2ccc(C(=O)CN3C(=O)NC4(CCC(F)(F)CC4)C3=O)cc2)n1` [Example 21-6] belongs less than 500 nM.
For the molecule `O=C(CN1C(=O)NC2(CCC(F)(F)CC2)C1=O)c1ccc(-c2ccc3ccccc3n2)cc1` [Example 13-47], the IC50 was less than 100 nM.
Consider `Cc1cccc(-n2c(C)cc(C(=O)CN3C(=O)NC4(CCC(C(F)(F)F)CC4)C3=O)c2C)n1` (stereo not drawn) [Example 3-15], for which the IC50 was less than 100 nM.
To `O=C(CN1C(=O)NC2(CCC(F)(F)CC2)C1=O)c1ccc(Oc2cccnc2)cc1` [Example 21-14, 8,8-difluoro-3-(2-oxo-2-(4-(pyridin-3-yloxy)phenyl)ethyl)-1,3-diazaspiro[4.5]decane-2,4-dione] belongs less than 100 nM.
